For assay [1], the target named is T1, Human immunodeficiency virus type 1 protease (Human immunodeficiency virus 1, UniProt Q72874). In words: Inhibition of recombinant HIV-1 protease measured by fluorometric assay.
Assay [2] addresses T1, Human immunodeficiency virus type 1 protease. Put plainly: Inhibition of HIV-1 protease by fluorometric assay.

Each structure is given as a SMILES string.

One may read the Ki as a dissociation constant, usually derived from enzyme kinetics or from competition with a known ligand.

As for `O=S1(=O)N(Cc2ccccc2)[C@H](COc2ccccc2)[C@H](O)[C@@H](O)[C@@H](COc2ccccc2)N1Cc1ccccc1`, the Ki in assay [1] is 23 nM; in assay [2], 22.9 nM.

With `C/C(=N\O)c1cccc(CN2[C@H](COc3ccccc3)[C@H](O)[C@@H](O)[C@@H](COc3ccccc3)N(Cc3cccc(/C(C)=N/O)c3)S2(=O)=O)c1`, the Ki in assay [1] was 3.4 nM; in assay [2] it was 3.39 nM.

In the case of `O=C1N(Cc2ccccc2)[C@H](COc2ccccc2)[C@H](O)[C@@H](O)[C@@H](COc2ccccc2)N1Cc1ccccc1`, the Ki in assay [1] came to 11 nM.

On to `O=S1(=O)N(Cc2ccc(-c3cccs3)cc2)[C@@H](COc2ccccc2)[C@@H](O)[C@H](O)[C@H](COc2ccccc2)N1Cc1ccc(-c2cccs2)cc1`, for which the inhibition constant (Ki) was 920 nM in assay [1] and 912 nM in assay [2].

With `O=C(CN1[C@@H](COc2ccccc2)[C@@H](O)[C@H](O)[C@H](COc2ccccc2)N(Cc2ccc(-c3cccs3)cc2)S1(=O)=O)Nc1nccs1`, the figures for the inhibition constant (Ki) in assay [1] and in assay [2] were 1800 nM and 1780 nM, respectively.

On to `O=C(CN1[C@@H](COc2ccccc2)[C@@H](O)[C@H](O)[C@H](COc2ccccc2)N(Cc2cccc(-c3cccs3)c2)S1(=O)=O)Nc1nccs1`, for which the inhibition constant Ki in assay [1] is 140 nM; in assay [2], 141 nM.

Take `O=C(CN1[C@@H](COc2ccccc2)[C@@H](O)[C@H](O)[C@H](COc2ccccc2)N(Cc2cccc(I)c2)S1(=O)=O)Nc1nccs1`: the Ki was 510 nM in assay [1] and 513 nM in assay [2].

`CNC(=O)CN1[C@@H](COc2ccccc2)[C@@H](O)[C@H](O)[C@H](COc2ccccc2)N(Cc2ccccc2)S1(=O)=O`: the results for the Ki in assay [1] and in assay [2] were 1400 nM and 1410 nM, respectively.

For `O=S1(=O)N(Cc2cccc(CCO)c2)[C@@H](COc2ccccc2)[C@@H](O)[C@H](O)[C@H](COc2ccccc2)N1Cc1cccc(CCO)c1`, the Ki in assay [1] is 43 nM; in assay [2], 42.7 nM.

`CC(=O)c1cccc(CN2[C@@H](COc3ccccc3)[C@@H](O)[C@H](O)[C@H](COc3ccccc3)N(Cc3cccc(C(C)=O)c3)S2(=O)=O)c1`: the Ki in assay [1] was 59 nM; in assay [2] it was 58.9 nM.

With `O=S1(=O)N(Cc2ccccc2)[C@@H](COc2ccccc2)[C@@H](O)[C@H](O)[C@H](COc2ccccc2)N1Cc1cccc(-c2cccs2)c1`, the Ki is 86 nM in assay [1] and 85.1 nM in assay [2].

Turning to `O=S1(=O)N(Cc2ccccc2)[C@@H](COc2ccccc2)[C@@H](O)[C@H](O)[C@H](COc2ccccc2)N1Cc1ccc(-c2cccs2)cc1`, the Ki in assay [1] was 63 nM; in assay [2], 63.1 nM.

With `O=C(CN1[C@@H](COc2ccccc2)[C@@H](O)[C@H](O)[C@H](COc2ccccc2)N(Cc2ccccc2)S1(=O)=O)Nc1nccs1`, the Ki in assay [1] was 350 nM; in assay [2], 347 nM.

As to `CN1[C@@H](COc2ccccc2)[C@@H](O)[C@H](O)[C@H](COc2ccccc2)N(Cc2ccccc2)S1(=O)=O`, the results for the Ki in assay [1] and in assay [2] were 510 nM and 513 nM, respectively.

For the molecule `CNC(=O)c1cccc(CN2[C@@H](COc3ccccc3)[C@@H](O)[C@H](O)[C@H](COc3ccccc3)N(Cc3cccc(C(=O)NC)c3)S2(=O)=O)c1`, the Ki in assay [1] was 39 nM; in assay [2], 38.9 nM.

`O=S1(=O)N(Cc2ccc(-c3cccs3)cc2)[C@@H](COc2ccccc2)[C@@H](O)[C@H](O)[C@H](COc2ccccc2)N1Cc1cccc(-c2cccs2)c1`: the figures for the Ki in assay [1] and in assay [2] were 6000 nM and 6030 nM, respectively.

Consider `O=S1(=O)N(Cc2cccc(-c3cccs3)c2)[C@@H](COc2ccccc2)[C@@H](O)[C@H](O)[C@H](COc2ccccc2)N1Cc1cccc(-c2cccs2)c1`, for which the figures for the Ki in assay [1] and in assay [2] were 2200 nM and 2190 nM, respectively.

Turning to `O=S1(=O)N(Cc2ccc(CO)cc2)[C@@H](COc2ccccc2)[C@@H](O)[C@H](O)[C@H](COc2ccccc2)N1Cc1ccc(CO)cc1`, the values for the Ki in assay [1] and in assay [2] were 3.1 nM and 3.09 nM, respectively.

With `COC(Cc1cccc(CN2[C@@H](COc3ccccc3)[C@@H](O)[C@H](O)[C@H](COc3ccccc3)N(Cc3cccc(CC(OC)OC)c3)S2(=O)=O)c1)OC`, the Ki in assay [1] was 540 nM; in assay [2], 537 nM.

Take `CN1[C@@H](COc2ccccc2)[C@@H](O)[C@H](O)[C@H](COc2ccccc2)N(C)S1(=O)=O`: the Ki is 710 nM in assay [1] and 708 nM in assay [2].

Take `CNC(=O)CN1[C@@H](COc2ccccc2)[C@@H](O)[C@H](O)[C@H](COc2ccccc2)N(CC(=O)NC)S1(=O)=O`: the results for the Ki in assay [1] and in assay [2] were 25000 nM and 25100 nM, respectively.

As for `COC(=O)c1ccc(CN2[C@@H](COc3ccccc3)[C@@H](O)[C@H](O)[C@H](COc3ccccc3)N(Cc3ccc(C(=O)OC)cc3)S2(=O)=O)cc1`, the Ki in assay [1] is 84 nM; in assay [2], 83.2 nM.

Take `O=S1(=O)N(Cc2cccc(I)c2)[C@@H](COc2ccccc2)[C@@H](O)[C@H](O)[C@H](COc2ccccc2)N1Cc1cccc(I)c1`: the values for the Ki in assay [1] and in assay [2] were 93 nM and 93.3 nM, respectively.

(Values after ChEMBL document CHEMBL1134693, “Synthesis and comparative molecular field analysis (CoMFA) of symmetric and nonsymmetric cyclic sulfamide HIV-1 protease inhibitors” (J Med Chem, 2001).)
